In patent publication US20240116985A1, “STAPLED PEPTIDES AND METHODS THEREOF” (priority 2020, published 2024):
Like-named read-outs stand apart in the source and are kept apart here.

Tests used:
[1] = target: T1, full-length beta-Catenin (Uniprot ID P35222) (Homo sapiens, UniProt P35222); experiment: Fluorescence polarization IC50 (beta-catenin / 5FAM-TCF4 10-53 competition); assay type: binding; conditions: fluorescence polarization
T1 construct: 10 nM full-length beta-Catenin (Uniprot ID P35222)
T1 sequence (P35222 1-781): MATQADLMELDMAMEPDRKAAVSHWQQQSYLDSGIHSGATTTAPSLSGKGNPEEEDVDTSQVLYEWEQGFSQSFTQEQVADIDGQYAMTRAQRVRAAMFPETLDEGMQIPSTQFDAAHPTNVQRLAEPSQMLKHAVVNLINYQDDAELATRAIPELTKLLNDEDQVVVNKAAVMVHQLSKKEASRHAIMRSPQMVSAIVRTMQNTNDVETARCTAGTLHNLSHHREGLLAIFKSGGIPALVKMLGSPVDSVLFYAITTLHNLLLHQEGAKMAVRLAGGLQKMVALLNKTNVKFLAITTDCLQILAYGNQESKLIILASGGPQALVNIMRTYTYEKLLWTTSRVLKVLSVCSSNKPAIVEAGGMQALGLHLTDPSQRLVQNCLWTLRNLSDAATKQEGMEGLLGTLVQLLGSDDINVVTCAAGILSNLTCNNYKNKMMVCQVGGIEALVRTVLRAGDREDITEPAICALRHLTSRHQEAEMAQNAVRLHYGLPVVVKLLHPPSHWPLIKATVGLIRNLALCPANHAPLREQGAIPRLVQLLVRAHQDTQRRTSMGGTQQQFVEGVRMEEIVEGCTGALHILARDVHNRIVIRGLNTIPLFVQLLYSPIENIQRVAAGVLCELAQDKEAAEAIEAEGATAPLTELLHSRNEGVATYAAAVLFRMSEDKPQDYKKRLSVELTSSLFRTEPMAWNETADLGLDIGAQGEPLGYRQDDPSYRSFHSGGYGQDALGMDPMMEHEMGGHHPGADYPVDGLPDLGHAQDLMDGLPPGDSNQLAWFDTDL

[2] = target: T2, beta-catenin/TCF4 engagement (Homo sapiens, UniProt P35222); experiment: Nano-BRET target engagement assay (B-cat-Halo & TCF4-Luc in HEK293 cells); assay type: cell-based
T2 construct: expressed in transfected cells; host or cells: HEK293
T2 sequence (P35222 1-781): T1 sequence (P35222 1-781)

COLO320DM cells = assay type: cell-based; conditions: COLO320DM cells, read-out: COLO320DM Proliferation Abs IC50
Description: COLO320DM proliferation assay IC50: In some embodiments, inhibition of cell proliferation by provided technologies were assessed using cell lines related to or from certain conditions, disorders or diseases. In some embodiments, cell proliferation was assessed in COLO320DM cells. In some embodiments, assessment was performed using the following procedure: On Day 1, cultured COLO320DM cells in a T75 flask were trypsinized in 3 mL of 0.25% trypsin/EDTA for 5 min and quenched with 10 mL RPMI-1640+4% HI FBS assay media. The cells were spun down at 1200 rpm for 5 min, the cell pellet collected and re-suspended at 5000 cells/mL in assay media. Using a Combi liquid handler, cells were dispensed (50 uL, 250 cells/well) into three 384 well plates. Plates were incubated at 37° C., […]. On day 2, compounds were added. A liquid handling system was used to prepare the compound dilution and dispense compound into assay plates. The compounds were serially diluted 1/2 in 90% DMSO to create a 7 point dose curve. From compound plate, 100 nL of compound were dispensed directly into wells of the assay plates to create a dose curve starting at 20 uM and ending at 313 nM. Assay plates were incubated at 37° C., […]. On day 6, assay plates were removed from the incubator and allowed to sit at room temperature for 30 min. Using a liquid handler, 20 uL of CellTiter Glo reagent was added to each well. The assay plates were shaken for 2 min and allowed to sit on the bench for 10-15 minutes. The assay plates were read using the CellTiter Glo protocol on a GloMax microplate reader, and the data analyzed using GraphPad Prism.

[3] = absolute IC50, read-out: NanoBRET Abs IC50

| Compound | IC50 ([1]; read-out: beta-Catenin FP IC50) [nM] | IC50 [2, 3] [µM] | IC50 (COLO320DM cells; absolute IC50) [µM] | IC50 ([1]; beta-Catenin FP IC50 (nM)) [nM] | IC50 ([2]; NanoBRET Abs IC50 (uM), absolute IC50) [µM] | IC50 ([2]; read-out: NanoBRET Abs IC50) [µM] | IC50 (COLO320DM cells) [µM] |
| --- | --- | --- | --- | --- | --- | --- | --- |
| CC(=O)N1CCC[C@]12CC=CCCCC1(CCCC=CCCCOC(=O)N3CC[C@@](C(=O)N[C@@H](Cc4ccccc4C(F)(F)F)C(=O)N[C@@H](Cc4csc5ccccc45)C(=O)N[C@@H](C)C(N)=O)(C3)NC(=O)[C@H](CC(C)C)NC(=O)[C@H](Cc3ccccc3)NC(=O)[C@H](C)NC(=O)[C@H](CCC(=O)N3CCNC(=O)C3)NC(=O)[C@H](Cc3cccc(C(=O)O)c3)NC(=O)[C@H](CC(=O)O)NC1=O)NC(=O)[C@H](CC(C)(C)C)NC(=O)[C@H](CC(=O)O)NC2=O (stereo partly drawn) [I-2318, Ac-PL3-Asp-Npg-B5-Asp-3COOHF-[2OxoPpz]GlnR-Ala-Phe-Leu-PyrS2-2F3MeF-BztA-Ala-NH2] | 5 | 1.8 | > 20 |  |  |  |  |
| CCCC[C@@H]1NC(=O)[C@H](Cc2ccccc2)NC(=O)[C@H](C)NC(=O)[C@H](C)NC(=O)[C@H](Cc2cccc(C(=O)O)c2)NC(=O)[C@H](CC(=O)O)NC(=O)C2(CCCC=CCCCOC(=O)N3CC[C@@](C(=O)N[C@@H](Cc4ccccc4C(F)(F)F)C(=O)N[C@@H](Cc4csc5ccccc45)C(=O)N[C@@H](CCC(=O)N(C)C)C(N)=O)(C3)NC1=O)CCCC=CC[C@]1(CCCN1C(C)=O)C(=O)N[C@@H](CC(=O)O)C(=O)N[C@@H](CC(C)(C)C)C(=O)N2 (stereo partly drawn) [I-2533, Ac-PL3-Asp-Npg-B5-Asp-3COOHF-Ala-Ala-Phe-nLeu-PyrS2-2F3MeF-BztA-Me2Gln-NH2] | 28 | 6.2 | > 20 |  |  |  |  |
| CC(=O)N1CCC[C@]12CC=CCCCC1(CCCC=CCCCOC(=O)N3CC[C@@](C(=O)N[C@@H](Cc4ccccc4C(F)(F)F)C(=O)N[C@@H](Cc4csc5ccccc45)C(=O)N[C@@H](C)C(N)=O)(C3)NC(=O)[C@H](CC(C)C)NC(=O)[C@H](Cc3ccccc3)NC(=O)[C@H](C)NC(=O)[C@H](CCC(=O)N3CCOCC3)NC(=O)[C@H](Cc3cccc(C(=O)O)c3)NC(=O)[C@H](CC(=O)O)NC1=O)NC(=O)[C@H](CC(C)(C)C)NC(=O)[C@H](CC(=O)O)NC2=O (stereo partly drawn) [I-2315, Ac-PL3-Asp-Npg-B5-Asp-3COOHF-[Morph]GlnR-Ala-Phe-Leu-PyrS2-2F3MeF-BztA-Ala-NH2] | 5 | 1.2 | > 20 |  |  |  |  |
| CC(=O)N1CCC[C@]12CC=CCCCC1(CCCC=CCCCOC(=O)N3CC[C@@](C(=O)N[C@@H](Cc4ccccc4C(F)(F)F)C(=O)N[C@@H](Cc4csc5ccccc45)C(=O)N[C@@H](CCC(=O)N(C)C)C(N)=O)(C3)NC(=O)[C@H](CC(C)C)NC(=O)[C@H](Cc3ccccc3)NC(=O)[C@H](C)NC(=O)[C@H](C)NC(=O)[C@H](Cc3cccc(C(=O)O)c3)NC(=O)[C@H](CC(=O)O)NC1=O)NC(=O)[C@H](CC(C)(C)C)NC(=O)[C@H](CC(=O)O)NC2=O (stereo partly drawn) [I-2532, Ac-PL3-Asp-Npg-B5-Asp-3COOHF-Ala-Ala-Phe-Leu-PyrS2-2F3MeF-BztA-Me2Gln-NH2] | 14 | 4.5 | > 20 |  |  |  |  |
| COCCN(CCOC)C(=O)CC[C@@H]1NC(=O)[C@H](Cc2cccc(C(=O)O)c2)NC(=O)[C@H](CC(=O)O)NC(=O)C2(CCCC=CCCCOC(=O)N3CC[C@@](C(=O)N[C@@H](Cc4ccccc4C(F)(F)F)C(=O)N[C@@H](Cc4csc5ccccc45)C(=O)N[C@@H](C)C(N)=O)(C3)NC(=O)[C@H](CC(C)C)NC(=O)[C@H](Cc3ccccc3)NC(=O)[C@H](C)NC1=O)CCCC=CC[C@]1(CCCN1C(C)=O)C(=O)N[C@@H](CC(=O)O)C(=O)N[C@@H](CC(C)(C)C)C(=O)N2 (stereo partly drawn) [I-2322, Ac-PL3-Asp-Npg-B5-Asp-3COOHF-[bismethoxyethylamine]GlnR-Ala-Phe-Leu-PyrS2-2F3MeF-BztA-Ala-NH2] | 7 | 1.8 | > 20 |  |  |  |  |
| CC(=O)N1CCC[C@]12CC=CCCCC1(CCCC=CCCCOC(=O)N3CC[C@@](C(=O)N[C@@H](Cc4ccccc4C(F)(F)F)C(=O)N[C@@H](Cc4csc5ccccc45)C(=O)N[C@@H](C)C(N)=O)(C3)NC(=O)[C@H](CC(C)C)NC(=O)[C@H](Cc3ccccc3)NC(=O)[C@H](C)NC(=O)[C@H](CCC(=O)N3CCN(CC(F)(F)F)CC3)NC(=O)[C@H](Cc3cccc(C(=O)O)c3)NC(=O)[C@H](CC(=O)O)NC1=O)NC(=O)[C@H](CC(C)(C)C)NC(=O)[C@H](CC(=O)O)NC2=O (stereo partly drawn) [I-2316, Ac-PL3-Asp-Npg-B5-Asp-3COOHF-[TfePpz]GlnR-Ala-Phe-Leu-PyrS2-2F3MeF-BztA-Ala-NH2] | 11 | 1.6 | > 20 |  |  |  |  |
| CC(=O)N1CCC[C@]12CC=CCCCC1(CCCC=CCCCOC(=O)N3CC[C@@](C(=O)N[C@@H](Cc4ccsc4)C(=O)N[C@@H](Cc4csc5ccccc45)C(=O)N[C@@H](CC(N)=O)C(=O)N[C@@H](C)C(=O)N[C@@H](C)C(=O)N[C@@H](C)C(=O)N[C@@H](C)C(=O)N[C@@H](C)C(=O)N[C@@H](C)C(=O)N[C@@H](C)C(N)=O)(C3)NC(=O)[C@H](CC(C)C)NC(=O)[C@H](Cc3ccccc3)NC(=O)[C@H](C)NC(=O)[C@H](C)NC(=O)[C@H](Cc3cccc(C(=O)O)c3)NC(=O)[C@H](CC(=O)O)NC1=O)NC(=O)[C@H](CC(C)(C)C)NC(=O)[C@H](CC(=O)O)NC2=O (stereo partly drawn) [I-2269] |  |  | 3.9 | 20 | 2.3 |  |  |
| CC(=O)N1CCC[C@]12CC=CCCCC1(CCCC=CCCCOC(=O)N3CC[C@@](C(=O)N[C@@H](Cc4ccsc4)C(=O)N[C@@H](Cc4csc5ccccc45)C(=O)N[C@H](CO)C(=O)N[C@@H](C)C(N)=O)(C3)NC(=O)[C@@H](CO)NC(=O)[C@H](Cc3ccccc3)NC(=O)[C@H](C)NC(=O)C(C)(C)NC(=O)[C@H](Cc3cccc(C(=O)O)c3)NC(=O)[C@H](CC(=O)O)NC1=O)NC(=O)[C@H](CC(C)(C)C)NC(=O)[C@H](CC(=O)O)NC2=O (stereo partly drawn) [I-2576, Ac-PL3-Asp-Npg-B5-Asp-3COOHF-Aib-Ala-Phe-dSer-PyrS2-3Thi-BztA-dSer-Ala-NH2] | 6 |  |  |  |  | 16.1 | > 20 |
| CCCC[C@@H]1NC(=O)[C@H](Cc2ccccc2)NC(=O)[C@H](C)NC(=O)[C@H](C)NC(=O)[C@H](Cc2cccc(C(=O)O)c2)NC(=O)[C@H](CC(=O)O)NC(=O)C2(CCCC=CCCCOC(=O)N3CC[C@@](C(=O)N[C@@H](Cc4ccccc4C(F)(F)F)C(=O)N[C@@H](Cc4csc5ccccc45)C(=O)N[C@@H](CCC(=O)N4CCOCC4)C(N)=O)(C3)NC1=O)CCCC=CC[C@]1(CCCN1C(C)=O)C(=O)N[C@@H](CC(=O)O)C(=O)N[C@@H](CC(C)(C)C)C(=O)N2 (stereo partly drawn) [I-2542, Ac-PL3-Asp-Npg-B5-Asp-3COOHF-Ala-Ala-Phe-nLeu-PyrS2-2F3MeF-BztA-MorphGln-NH2] | 23 | 4 | > 20 |  |  |  |  |
| CC(=O)N1CCC[C@]12CC=CCCCC1(CCCC=CCCCOC(=O)N3CC[C@@](C(=O)N[C@@H](Cc4ccccc4C(F)(F)F)C(=O)N[C@@H](Cc4csc5ccccc45)C(=O)N[C@@H](CCC(N)=O)C(=O)N[C@@H](CC(C)C)C(=O)N[C@@H](CC(C)C)C(N)=O)(C3)NC(=O)[C@H](CC(C)C)NC(=O)[C@H](Cc3ccccc3)NC(=O)[C@H](C)NC(=O)[C@H](C)NC(=O)[C@H](Cc3cccc(C(=O)O)c3)NC(=O)[C@H](CC(=O)O)NC1=O)NC(=O)[C@H](CC(C)(C)C)NC(=O)[C@H](CC(=O)O)NC2=O (stereo partly drawn) [I-2380, Ac-PL3-Asp-Npg-B5-Asp-3COOHF-Ala-Ala-Phe-Leu-PyrS2-2F3MeF-BztA-Gln-Leu-Leu-NH2] | 330 | 2.7 | > 20 |  |  |  |  |
